Assay results reported in patent US6939968B2, “Atropisomers of 3-substituted-4-arylquinolin-2-one derivatives” (Bristol-Myers Squibb Company, priority 2002, dated 2005).
Several values for one entry are separate records, joined by “and”; a condition that tells them apart may be missing. Equal entries are not always repeated.

How the values were obtained:
[1] = tested on: cloned mammalian (mSlo or hSlo) BK channels heterologously expressed in Xenopus oocytes; assay: BK-mediated outward current in Xenopus oocytes, two-electrode voltage clamp; type: cell-based; conditions: for Current: compounds at 10 μM, IBTX at supramaximal concentration (50-100 nM); for BK Current: at 10 μM, percent increase over BK current in controls, voltage step to +140 mV, IBTX-sensitive current
Description: The ability of the compounds of the invention to open BK channels and increase whole-cell outward (K+) BK-mediated currents was assessed under voltage-clamp conditions by determining their ability to increase cloned mammalian (mSlo or hSlo) BK—mediated outward current heterologously expressed in Xenopus oocytes [Butler, A., et al., Science, 261: 221-224 (1993); Dworetzky, S. I., et al., Mol. Brain Res., 27: 189-193 (1994); Gribkoff, V. K., et al., Mol. Pharmacol., 50:206-217 (1996)]. The two BK constructs employed represent nearly structurally identical homologous proteins, and have proven to be pharmacologically indistinguishable in our tests. To isolate BK current from native (background, non-BK) current, the specific and potent BK channel-blocking toxin iberiotoxin (IBTX) [Galvez, A., et al., J. Biol. Chem., 265: 11083-11090 (1990)] was employed at a supramaximal concentration, e.g., 50-100 nanomolar (“nM”). The relative contribution of BK channel-mediated current to total outward current was determined by subtraction of the current remaining in the presence of IBTX (non-BK current) from the current profiles obtained in all other experimental conditions (control, drug, and wash) [Gribkoff, V. K. et al., Mol. Pharmacol., 50:206-217 (1996)]. […] All compounds were tested in 5-10 oocytes and are reported at the indicated concentration of 10 micromolar (“μM”); the effect of the selected compounds of the invention on BK current was expressed as the percent of control IBTX-sensitive current at a single transmembrane voltage (+140 mV) and is listed in Table 1. Recordings were accomplished using standard two-electrode voltage clamp techniques [Stuhmer, W., et al., Methods in Enzymology, Vol. 207: 319-339 (1992)]; voltage-clamp protocols consisted of 500-750 milliseconds (“ms”) duration step depolarizations, from a holding potential of −60 mV, to a final voltage up to +140 mV in 20 mV steps. Table 2 lists the current-voltage (I-V) data for two compounds of the invention, applied to oocytes at a concentration of 10 μM. The experimental media (modified Barth's solution) consisted of millimolar (“mM”): NaCl (88), NaHCO3 (2.4), KCl (1.0), HEPES (10), MgSO4 (0.82), Ca(NO3)2 (0.33), CaCl2 (0.41); pH 7.5.

[2] = tested on: stress-induced colonic motility (fecal pellet output); assay: Air jet stress-induced colonic motor activity; type: in vivo; conditions: rats, 20 mg/kg ip
Description: Environmental stress is believed to play a role in irritable bowel syndrome and other altered bowel motility states. […] Based on this, we tested the hypothesis that maxi-K^+potassium channel openers of the present invention can be effective in reducing stress-induced acceleration in colonic motility, as indexed by fecal pellet output.
Rats were randomly divided into 2 groups and treated with vehicle (polyethylene glycol (400 grams per mole), 1 mL/kg, ip) or the compound of Example 1 in racemate form (20 mg/kg) at time zero. At 1.5 hr post-treatment, each rat was partially restrained in plexiglas container and was subjected to air-jet stress. This was brought about by exposing each of the partially-restrained animals to 3-4 episodes of 2 minute long air jets with an interval of 8-10 minutes between episodes. The fecal output was collected and the wet weight was recorded. The data were analyzed by combining individual output within each group to calculate a group mean and the means were compared using a statistical test (unpaired, two-tailed t-test; p<0.05).

With `Cn1c(=O)c(CCO)c(-c2cc(Cl)ccc2O)c2cc(C(F)(F)F)ccc21` [Example 2] the Current ([1]; voltage 0 mV) was 0 μA, the Current ([1]; voltage 20 mV) was 0 μA and the Current ([1]; voltage 40 mV) was 0.2 μA. For the same compound, the Current ([1]; voltage 60 mV) was 0.6 μA, the Current ([1]; voltage 80 mV) was 1.4 μA and the Current ([1]; voltage 100 mV) was 2.5 μA. It also gave a Current ([1]; voltage 120 mV) of 3.9 μA, a Current ([1]; voltage 140 mV) of 5.6 μA and a Current ([1]; voltage −20 mV) of 0 μA. It also gave a Current ([1]; voltage −40 mV) of 0 μA.

With `Cn1c(=O)c(CCO)c(-c2cc(Cl)ccc2O)c2cc(C(F)(F)F)ccc21` (single isomer, unassigned) [Example 5-atropisomer A, (−) 4-(5-Chloro-2-hydroxy-phenyl)-1-methyl-3-(2-hydroxy-ethyl)-6-trifluoromethyl-1H-quinolin2-one] the “BK Current” value [1] was 360.8 ± 29.6% and 183.6 ± 9.50%.

In the case of `O=c1[nH]c2ccc(C(F)(F)F)cc2c(-c2cc(Cl)ccc2O)c1CCO` (single isomer, unassigned) [Example 3-atropisomer A, (−) 4-(5-Chloro-2-hydroxy-phenyl)-3-(2-hydroxy-ethyl)-6-trifluoromethyl-1H-quinolin2-one], the “BK Current” value ([1]; listed as 3-atropisomer A) was 291.8 ± 26.8%.

Work on `O=c1[nH]c2ccc(C(F)(F)F)cc2c(-c2cc(Cl)ccc2O)c1CCO` (racemic) [Example 1, 4-(5-Chloro-2-hydroxyphenyl)-3-(2-hydroxyethyl)-6 (trifluoromethyl)-2(1H)-Quinolinone] yielded a Current ([1]; voltage 0 mV) of 0.2 μA, a Current ([1]; voltage 20 mV) of 0.7 μA and a Current ([1]; voltage 40 mV) of 1.8 μA. It also gave a Current ([1]; voltage 60 mV) of 3.3 μA, a Current ([1]; voltage 80 mV) of 4.9 μA and a Current ([1]; voltage 100 mV) of 6.6 μA. For the same compound, the Current ([1]; voltage 120 mV) was 8.4 μA, the Current ([1]; voltage 140 mV) was 10.2 μA and the Current ([1]; voltage −20 mV) was 0 μA. For the same compound, the Current ([1]; voltage −40 mV) was 0 μA, the “fecal output (wet weight, group mean)” value ([2]; air-jet stress 1.5 hr post-treatment, vehicle group 0.37 grams) was 0.03 grams and the “animals showing a defecatory response to air-jet” value ([2]; vehicle group 9/12) was 3 out of 11.

With `O=c1[nH]c2ccc(C(F)(F)F)cc2c(-c2cc(Cl)ccc2O)c1CCO` (single isomer, unassigned) [Example 3-atropisomer B, (+) 4-(5-Chloro-2-hydroxy-phenyl)-3-(2-hydroxy-ethyl)-6-trifluoromethyl-1H-quinolin2-one] the “BK Current” value ([1]; listed as 3-atropisomer B) was 213.9 ± 21.4%.

For “iberiotoxin (QFTDVDCSVSKECWSVCKDLFGVDRGKCMGKKCRCYQ; UniProt P24663 1-37, looked up) [IBTX, reference compound]”, the Current ([1]; voltage 0 mV) was 0 μA, the Current ([1]; voltage 20 mV) was 0 μA and the Current ([1]; voltage 40 mV) was 0 μA. It also gave a Current ([1]; voltage 60 mV) of 0 μA, a Current ([1]; voltage 80 mV) of 0.1 μA and a Current ([1]; voltage 100 mV) of 0.2 μA. It also gave a Current ([1]; voltage 120 mV) of 0.6 μA, a Current ([1]; voltage 140 mV) of 1.2 μA and a Current ([1]; voltage −20 mV) of 0 μA. The Current ([1]; voltage −40 mV) was 0 μA.
